Experimental data: patent US10231456B2, “Methods and compositions for controlling weed infestation and improving grass quality” (BAYER CROPSCIENCE LP, priority 2012, dated 2019)

How the values were obtained:
dallisgrass = assay: Post-emergence field plot test, % damage to natural dallisgrass infestation; format: in vivo, dallisgrass (Paspalum dilatatum); details: with non-ionic surfactant, rates g/ha foram 28.78, TCM 15, halo 69.9; for Trial 1 (16 WAT) % damage: 16 weeks after treatment; for Trial 2 (42 DAA) % damage: 42 days after application; for Trial 3 (48 DAA) % damage: 48 days after application
Excerpt: Plots approximately 2-4.6 m^2 in size are contain a natural infestion of the weed dallisgrass. Using a CO2 propelled backpack sprayer, thiencarbazone-methyl (TCM), foramsulfuron (foram), and halosulfuron-methyl (halo) are applied on their own and in a combination, by post-emergence method, to the dallisgrass, at the application rates specified. The application rates for each compound and combination are equivalent to each other. All treatments included a non-ionic surfactant. After 42 days, 48 days, and 16 weeks after treatment, the degree of damage to the plants is rated in % damage in comparison to the development of the untreated control.
(§1) The FIGURES denote: • 0%=no effect (like untreated control) • 100%=total destruction.

Tall Fescue = assay: Glasshouse post-emergence test, % damage to Tall Fescue; format: in vivo, tall fescue (Schedonorus phoenix/Festuca arundinacea); details: NIS 0.25 % V/V
Excerpt: Glasshouse plots approximately 1.1 m^2 in size are planted with the weed Tall Fescue. Using a 1 nozzle motorized track sprayer, thiencarbazone-methyl (BYH18636), foramsulfuron (Revolver●), and halosulfuron-methyl (Sedgehammer●) are applied on their own and in combination with each other (a combination of thiencarbazone-methyl, foramsulfuron, and halosulfuron-methyl is SP 102000025052), by post-emergence method, to the weed Tall Fescue, at the application rates specified. The application rates for each compound and combination are equivalent to each other.
After 14 and 27 days after treatment, the degree of damage to the plants is rated in % damage in comparison to the development of the untreated control.
as §1

[1] = higher rates: TCM 22.2, foram 44.37, halo 69 G A/HA (blend 135.6 G A/HA, 3.2 OZ/A)
[2] = lower rates: TCM 14.58, foram 29.12, halo 45.3 G A/HA (blend 89 G A/HA, 2.1 OZ/A)

Structure (SMILES)	Trial 1 (16 WAT) % damage (dallisgrass)	Trial 2 (42 DAA) % damage (dallisgrass)	Trial 3 (48 DAA) % damage (dallisgrass)	0 DAA % damage (Tall Fescue; [1])	0 DAA % damage (Tall Fescue; [2])	14 DAA % damage (Tall Fescue; [1])	14 DAA % damage (Tall Fescue; [2])	27 DAA % damage (Tall Fescue; [1])	27 DAA % damage (Tall Fescue; [2])
COc1cc(OC)nc(NC(=O)NS(=O)(=O)c2cc(NC=O)ccc2C(=O)N(C)C)n1 [foramsulfuron]	31.5%	76.7%	35%						
COC(=O)c1csc(C)c1S(=O)(=O)NC(=O)n1nc(OC)n(C)c1=O [thiencarbazone-methyl]	85.25%	65%	51%	0%	0%	42.5%	26.3%	75%	52.5%
COC(=O)c1c(Cl)nn(C)c1S(=O)(=O)NC(=O)Nc1nc(OC)cc(OC)n1 [halosulfuron-methyl]	0%	0%	−9%						
